According to US8586307B2, “Methods for diagnosing epigenetic, transgenerational effects of environmental toxicants on mammalian germ-lines and treating associated diseases” (priority 2005, dated 2013):
Where “and” joins values, the source holds several entries; their conditions need not be identical. Identical values can stand only once.

Key:
[1] = test system: vinclozolin generation animals; conditions: rat, in vivo
From the text: A number of the genes associated with the methylation changes identified have a relationship with various disease states, Table 3. […] Therefore, alterations in the epigenetic (DNA methylation) and/or expression of these genes is associated with a number of disease states. In addition to these correlations to previous literature, the vinclozolin generation animals develop a variety of disease states. Vinclozolin (F1-F4) generation animals between 6-12 months of age develop a variety of disease states or abnormalities, Table 4 [153]. Therefore, the vinclozolin generational animals used develop a variety of diseases, and have the altered epigenetic programming of the male germ-line. Combined observations indicate that the epigenetic alterations in the germ-line DNA and associated genes identified in this Example, are associated with a number of disease states, Tables 3 and 4.

[2] = General observations (body weight, litter size, serum testosterone, other tissues); format: in vivo, rat
Experimental: (§1) In Vivo Procedures: Gestating outbred Sprague-Dawley and inbred Fisher mother rats from timed, pregnant colonies housed at the Washington State University Vivarium, were given intraperitoneal injections of vinclozolin (100 mg/kg/day) and methoxychlor (200 mg/kg/day) from embryonic day 8-15 (E8-E15, sperm positive vaginal smear date=E0) of gestation (F0 generation) as previously described. Gestating mothers administered vehicle, sesame oil or DMSO, served as controls. At least 6 lines (individual F0 injected females) were generated for controls and treated groups for these analyses. Male rats from control and treated groups were collected at P60-P180 for analyses. F1 treated males were bred to F1 treated females to generate the F2 treated generation and F2 treated males were bred to F2 treated females to generate the F3 generation and the F3 were bred in the same manner to generate the F4 generation. Rats for the control groups were bred in the same manner for all the generations. No inbreeding or sibling crosses were generated. The outcross group (VOC) were generated by breeding the F2 treated males with wild-type females (total of 6 litters) and reverse outcross group (RVOC) was generated by breeding F2 treated females with wild-type males (total of 3 litters). Control (n=4) and treated (n=4) male offspring from the F1 generation from Fisher strain rats were collected at P6 for DNA methylation analysis, see below. All procedures have been approved by the Washington State University Animal Care Committee. The number of animals used for replicates in the experiments (i.e. n value) are as follows for vinclozolin treatment: F1 (control 11, treated 12); F2 (control 19, treated 30); F3 (control 19, treated 26); F4 (control 10, treated 17); VOC (18); and RVOC (6). For methoxychlor treatment animal number was for F1 (control 6, treated 9) and F2 (control 16, treated 22).

sperm DNA = test: Bisulfite sequencing of sperm DNA; format: in vivo, rat
Experimental: Bisulfite Sequencing: Genomic DNA was isolated from F1 and F4 sperm samples using the DNeasy Tissue Kit (Qiagen, Valencia, Calif.) and digested with Rsa I. Genomic DNA was then treated with sodium bisulfite, following methods previously established. Briefly, 5 μg of digested DNA was denatured in NaOH, then treated with 4.0 M, pH 5.0 sodium metabisulfite for 16 hours at 55° C. Following desalting, DNA was desulfonated with NaOH, neutralized and precipitated with ammonium acetate and ethanol. DNA samples were resuspended in 30 μL, of 1 mM Tris buffer, pH 8.0. Sequence specific primers were generated to amplify the region of interest. PCR products were cloned into pGemT Easy vector (Promega Corporation) and sequenced. Approximately 35 clones from each PCR product were sequenced for analysis of methylation state of the CpG sites. Confirming altered methylation states involved comparisons of the sequence following the bisulfite treatment. The primers for the lysophospholipase PCR bisulfite analysis were 5′GGTATATATAGAGGAAGGTAGGTA GG3′ (SEQ ID NO:1) and 5′TAAAAACCTCCAAAAAACAAACAC T3′ (SEQ ID NO:2).
Bisulfite sequencing: Bisulfite sequencing was used to characterize the DNA methylation patterns and changes. Genomic DNA was isolated from control and vinclozolin F2 and F3 generation epididymal sperm using the DNeasy Tissue Kit. Genomic DNA (10 μg) was digested with RsaI then treated with bisulfite as described above for Example I. After purification, the bisulfite converted DNA was used as a template for PCR. The bisulfite primers for each candidate were designed using MethPrimer (www.urogene.org/methprimer) system (Li and Dahiya, 2002) and are listed in Table 2. The sequence specific primers were generated to amplify the CpG region of interest to characterize the methylation pattern. PCR conditions for amplification were as follows: 30 cycles followed by another 30 cycles with nested primers (30 s at 95° C., 45 s at 50° C., and 50 s at 72° C.) and then 5 min at 72° C. with modified 1× buffer [10×: 166 mM (NH4)2.SO4; 670 mM Tris pH 8.8; 67 mM MgCl2; 100 mM β-mercaptoethanol]. PCR products were cloned into pGEM-T easy vector (Promega) and sequenced using Big-Dye Terminator (Applied BioSystems). Approximately 50 different clones from each PCR product were sequenced to characterize the methylation state of the CpG sites identified. A mixture of a minimum of 3 different F2 or F3 generation control and vinclozolin animals were used to generate approximately 50 clones per candidate analyzed. Statistical differences between methylation states were determined with a Fisher's Exact Test.

male rats = conditions: rat, in vivo
Experimental: as §1
Histology: Tissues were fixed in Bouin's (Amresco, Solon Ohio) and embedded in paraffin, and then sections stained with hematoxylin and eosin, according to standard procedures. The n=50 treated vinclozolin, n=42 controls.

[3] = F2/F3 sperm DNA, one of 5 potential CpG sites
[4] = F2/F3 sperm DNA, one of 6 potential CpG sites

For `C=CC1(C)OC(=O)N(c2cc(Cl)cc(Cl)c2)C1=O` (centres unmarked) [vinclozolin], the “Prevalence, Immune Abnormalities” value [1] was 27%, the “Prevalence, Kidney Disease” value [1] was 40% and the “Prevalence, Prostate Disease” value [1] was 50%. The “Prevalence, Testis Defect” value [1] was 30%, the “Prevalence, Tumor Development (e.g. breast)” value [1] was 17% and the “frequency at which generation animals develop disease states” value [1] was roughly 85%. For the same molecule, the serum testosterone levels ([2]; all the animals) was “normal”, the “effect on total body weight” value ([2]; rat, in vivo) was “no effect” and the “gross abnormality in any other tissues examined” value ([2]; rat, in vivo) was “No gross abnormality”. For the same molecule, the “litter size, newborn pup weights or testis weight per body weight” value ([2]; rat, in vivo) was “no change”, the “treated sperm DNA samples with bisulfite altered sequence of the lysophospholipase gene” value (sperm DNA; CpG island of lysophospholipase gene) was “approximately 25%” and the “methylation differences, Candidate #7 (Ankrd28/Galntl2)” value (sperm DNA; F2/F3 sperm DNA) was “did not have any detectable differences”. For the same molecule, the “methylation differences, Candidate #21, 32 (LOC503205/NCAM1)” value (sperm DNA; F2/F3 sperm DNA) was “no differences in methylation”, the “methylation differences, Candidate #23 (LOC503150/snRP1c)” value (sperm DNA; F2/F3 sperm DNA) was “no differences in methylation” and the “methylation differences, Candidate #25 (Mup4/MUP)” value (sperm DNA; F2/F3 sperm DNA) was “no differences in methylation”. The “CpG hypermethylated to, Candidate #29 (Runx1/Awa1p)” value (sperm DNA; F2/F3 sperm DNA, 1 of 6 potential CpG sites) was 48%, the “CpG hypermethylated to, Candidate #14, 15 (Lrrn6a)” value (sperm DNA; F2/F3 sperm DNA, 2 of 4 potential CpG) was 27% and the “CpG hypermethylated to, Candidate #26 (Acaca)” value (sperm DNA; F2/F3 sperm DNA, 2 of 5 potential CpG sites) was 50% and 28%. For the same molecule, the “CpG hypermethylated to, Candidate #33 (Six3/Six2)” value (sperm DNA; F2/F3 sperm DNA, 2 of 6 potential CpG sites) was 31% and 57%, the “CpG hypermethylated to, Candidate #27, 28 (zinc finger protein 212)” value (sperm DNA; F2/F3 sperm DNA, 2 of 8 potential CpG sites) was 45% and 48% and the “CpG hypermethylated to, Candidate #5, 6, 9 (FLJ22405 protein)” value (sperm DNA; F2/F3 sperm DNA, 2 of 9 potential CpG) was 50% and 35%. The “CpG hypermethylated to, Candidate #17, 18 (nicastrin/Copa)” value (sperm DNA; F2/F3 sperm DNA, 2 of 20 potential CpG sites) was 55% and 30%, the “CpG hypermethylated to, Candidate #13 (Nfix)” value (sperm DNA; F2/F3 sperm DNA, 4 of 17 potential CpG sites) was 50-60% and the “methylation differences, Candidate #4, 19 (Cacna1e)” value (sperm DNA; F2/F3 sperm DNA, 6 potential CpG) was “did not have any detectable differences in methylation”. The “CpG hypermethylated to, Candidate #31 (Waspip/LOC499811)” value (sperm DNA; F2/F3 sperm DNA, one of 4 potential CpG sites) was 42%, the “CpG hypermethylated to, Candidate #8 (liprin-α1/Fadd)” value (sperm DNA; [3]) was 65% and the “CpG hypermethylated to, Candidate #22 (tgolgin-1)” value (sperm DNA; [3]) was 67%. The “CpG hypermethylated to, Candidate #12 (similar to importin 7)” value (sperm DNA; [4]) was 51%, the “CpG hypermethylated to, Candidate #16 (optineurin)” value (sperm DNA; [4]) was 79% and the “H19 methylation (known imprinted gene, control)” value (sperm DNA; control vs vinclozolin F2/F3 sperm DNA) was “No change”. The “candidate DNA sequences confirmed to have specific hypermethylation” value (sperm DNA; of the 25 candidates, F2/F3 sperm DNA) was 15, the “methylation change, Candidate #34 (RAB12)” value (sperm DNA; partial region only) was “no change in methylation” and the “animals that developed a dramatic decrease in spermatogenic capacity” value (male rats; male) was “approximately 20%”. For the same molecule, the “animals with infertility associated with small testis and severely reduced spermatogenesis” value (male rats; male) was 4 animals, the “transgenerational animals that developed complete infertility” value (male rats; male) was 8% and the “histology of the testis, control versus treated” value (male rats) was “similar”. For the same molecule, the “infertility in outcrossed (VOC) males” value (male rats) was “increased infertility” and the “infertility in reverse outcross (RVOC)” value (male rats) was “no infertility”.
